Assay results: US6936636B2, “5-[phenyl-tetrahydronaphthalene-2-yl dihydronaphthalen-2-yl and heteroaryl-cyclopropyl]-pentadienoic acid derivatives having serum glucose reducing activity” (Allergan, Inc., priority 2003, dated 2005)

What was measured:
RXRα [1] = molecular target: T1, RXRα (Homo sapiens, UniProt P19793); test: RXR ligand binding assay
T1 construct: expressed in transfected cells
T1 sequence (P19793 1-462): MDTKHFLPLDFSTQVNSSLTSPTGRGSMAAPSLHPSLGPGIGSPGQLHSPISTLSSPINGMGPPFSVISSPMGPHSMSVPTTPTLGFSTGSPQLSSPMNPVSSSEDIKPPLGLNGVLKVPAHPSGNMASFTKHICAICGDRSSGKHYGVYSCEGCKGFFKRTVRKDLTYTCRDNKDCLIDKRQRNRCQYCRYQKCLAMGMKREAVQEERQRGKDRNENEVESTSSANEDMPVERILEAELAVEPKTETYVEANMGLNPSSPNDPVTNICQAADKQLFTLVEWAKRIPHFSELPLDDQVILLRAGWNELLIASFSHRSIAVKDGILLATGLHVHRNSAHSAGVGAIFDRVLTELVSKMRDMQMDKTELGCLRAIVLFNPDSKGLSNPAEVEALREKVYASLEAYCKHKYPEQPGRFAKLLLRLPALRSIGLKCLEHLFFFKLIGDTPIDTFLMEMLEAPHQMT
Description: (§1) A holoreceptor transactivation assay and a ligand binding assay which measure the antagonist/agonist like activity of the compounds of the invention, or their ability to bind to the several retinoid receptor subtypes, respectively, are described in published PCT Application No. WO WO93/11755 (particularly on pages 30-33 and 37-41) published on Jun. 24, 1993, the specification of which is also incorporated herein by reference. A detailed experimental procedure for holoreceptor transactivations has been described by Heyman et al. Cell 68, 397-406, (1992); Allegretto et al. J. Biol. Chem. 268, 26625-26633, and Mangelsdorf et al. The Retinoids: Biology, Chemistry and Medicine, pp 319-349, Raven Press Ltd., New York, which are expressly incorporated herein by reference. The results obtained in this assay are expressed in EC50 numbers, as they are also in the, chimeric receptor transactivation assay. The results of the ligand binding assay are expressed in Ki numbers. (See Cheng et al. Biochemical Pharmacology Vol. 22 pp 3099-3108, expressly incorporated herein by reference.)
(§2) In Tables 1 and 2 the binding Ki numbers are indicated in the first 3 columns. In the second set of three columns the numbers in parentheses indicate efficacy as a percentage compared to the standard compound, (2E, 4E, 1′S, 2′S)-3-methyl-5-[2′-methyl-2′-(5,5,8,8-tetramethyl-5,6,7,8-tetrahydro-naphthalen-2-yl)-cyclopropyl]-penta-2,4-dienoic acid and the other numbers indicate the measured EC50 in nanomolar concentration.

RXRβ [2] = molecular target: T2, RXRβ (Homo sapiens, UniProt P28702); test: RXR ligand binding assay
T2 construct: expressed in transfected cells
T2 sequence (P28702 1-533): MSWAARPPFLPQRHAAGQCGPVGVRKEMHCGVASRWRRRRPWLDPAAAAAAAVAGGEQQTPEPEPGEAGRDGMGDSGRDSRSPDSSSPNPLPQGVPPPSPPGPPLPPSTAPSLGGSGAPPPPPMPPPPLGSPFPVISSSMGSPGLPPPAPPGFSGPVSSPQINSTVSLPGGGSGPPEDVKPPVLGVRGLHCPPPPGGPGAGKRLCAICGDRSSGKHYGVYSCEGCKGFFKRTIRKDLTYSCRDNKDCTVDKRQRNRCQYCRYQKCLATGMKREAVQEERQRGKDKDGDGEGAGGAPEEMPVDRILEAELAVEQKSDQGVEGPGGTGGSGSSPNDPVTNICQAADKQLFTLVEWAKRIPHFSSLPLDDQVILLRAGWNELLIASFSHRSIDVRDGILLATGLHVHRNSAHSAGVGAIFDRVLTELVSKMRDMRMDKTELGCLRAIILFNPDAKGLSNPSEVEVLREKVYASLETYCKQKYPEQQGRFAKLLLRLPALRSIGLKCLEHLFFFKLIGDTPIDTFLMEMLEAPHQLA
Description: as §1, §2

RXRα [3] = molecular target: T1, RXRα; test: holoreceptor transactivation assay; type: cell-based; details: for Transactivation % Efficiency RXRα: efficacy as percentage compared to the standard compound; for EC50: holoreceptor assay
Description: as §1
(§3) Efficacy in a transactivation assay is expressed as a percentage of the maximum potency attained by the compound compared to a standard which, in this, case, is the compound named (2E, 4E, 1′S, 2′S)-3-methyl-5-[2′-methyl-2′-(5,5,8,8-tetramethyl-5,6,7,8-tetrahydro-naphthalen-2-yl)-cyclopropyl]-penta-2,4-dienoic acid. This standard compound is described in U.S. Pat. No. 6,114,533.
(§4) Table 1 discloses the activity of certain exemplary tetrahydronaphthale compounds of the invention in the above-described RXR receptor transactivation and binding assays. […] The transactivation data pertaining to the activation of RXR receptors were obtained in the holoreceptor assay.
as §2

RXRβ [4] = molecular target: T2, RXRβ; test: holoreceptor transactivation assay; type: cell-based; details: for Transactivation % Efficiency RXRβ: efficacy as percentage compared to the standard compound; for EC50: holoreceptor assay
Description: as §1, §3, §4, §2

RXRγ = molecular target: T3, RXRγ (Homo sapiens, UniProt P48443); test: holoreceptor transactivation assay; type: cell-based; details: for Transactivation % Efficiency RXRγ: efficacy as percentage compared to the standard compound; for EC50: holoreceptor assay
T3 construct: expressed in transfected cells
T3 sequence (P48443 1-463): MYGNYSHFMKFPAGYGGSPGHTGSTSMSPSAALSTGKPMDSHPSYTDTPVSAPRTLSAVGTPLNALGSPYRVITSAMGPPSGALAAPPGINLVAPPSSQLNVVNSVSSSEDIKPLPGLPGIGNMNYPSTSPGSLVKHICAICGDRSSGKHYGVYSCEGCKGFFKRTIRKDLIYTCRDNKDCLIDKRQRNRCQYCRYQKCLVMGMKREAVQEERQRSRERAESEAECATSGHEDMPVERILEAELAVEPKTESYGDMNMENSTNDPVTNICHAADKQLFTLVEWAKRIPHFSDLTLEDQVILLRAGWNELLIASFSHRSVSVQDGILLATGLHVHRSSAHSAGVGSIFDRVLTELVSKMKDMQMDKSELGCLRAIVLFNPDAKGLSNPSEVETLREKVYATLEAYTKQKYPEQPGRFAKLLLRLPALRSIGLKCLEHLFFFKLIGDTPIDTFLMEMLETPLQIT
Description: as §1, §3, §4, §2

[5] = tested on: female diabetic db/db mice; test: serum glucose, triglyceride and thyroxine levels in diabetic db/db mice; type: in vivo; details: for Glucose / Triglycerides / T4: db/db mice; for T4: Day 7
Description: An assay described below tests the effect of compounds of the invention on serum glucose, tryglyceride and thyroxine levels in female 9-10 weeks old db/db mice.
Female diabetic db/db (9-10 weeks old) mice were maintained on standard laboratory food and treated by oral gavage with vehicle (corn oil), standard compound (2E, 4E, 1′S, 2S)-3-methyl-5-[2′-methyl-2′-(5,5,8,8-tetramethyl-5,6,7,8-tetrahydro-naphthalen-2-yl)-cyclopropyl]-penta-2,4-dienoic acid ([…]) daily for seven days at 8:00 AM. Blood samples (70 μl) were taken by orbital bleeding at 11:00 AM on day 0 (pre-treatment), day 3, and day 6. On day 7, a blood sample (700 μl) was taken at 11:00 AM and the animals were sacrificed. Glucose, triglyceride and thyroxine (T4) levels were determined on a Boehringer Manheim Hatachi Clinical Chemistry Analyzer using standard protocols provided by the manufacturer and reagents that were supplied in commercially available kits (glucose and T4: Boehringer Manheim; triglycerides: Roche Diagnostics). Seven animals were treated in each group.

[6] = Day 0 (pre-treatment), 50 mg/kg oral gavage daily
[7] = Day 3, 3 h, 50 mg/kg oral gavage daily
[8] = Day 6, 3 h, 50 mg/kg oral gavage daily
[9] = Day 0 (pre-treatment), 4 mg/kg oral gavage daily
[10] = Day 3, 3 h, 4 mg/kg oral gavage daily
[11] = Day 6, 3 h, 4 mg/kg oral gavage daily

Ki (RXRα [1]) | Ki (RXRβ [2]) | Transactivation % Efficiency RXRα (RXRα [3]) | EC50 (RXRα [3]) | Transactivation % Efficiency RXRβ (RXRβ [4]) | EC50 (RXRβ [4]) | Transactivation % Efficiency RXRγ (RXRγ) | EC50 (RXRγ) | SMILES | other results
5 nM | 48 nM | 39% | 4 nM | 38% | 36 nM | 41% | 6 nM | COC[C@H]1[C@@H](/C=C/C(C)=C/C(=O)O)[C@@]1(C)c1ccc2c(c1)C(C)(C)CCC2(C)C (stereo in doubt) [Compound 21a, (−)-(1R, 2S, 3 S)-5-[3-Methoxymethyl-2-methyl-2-(5,5,8,8-tetramethyl-5,6,7,8-tetrahydro-naphthalen-2-yl)-cyclopropyl]-3-methyl-penta-2E,4E-dienoic acid] | Glucose [5, 6]: 445 ± 66 mg/dL; Triglycerides [5, 6]: 271 ± 80 mg/dL; Glucose [5, 7]: 339 ± 194 mg/dL; Triglycerides [5, 7]: 130 ± 71 mg/dL; Glucose [5, 8]: 314 ± 196 mg/dL; Triglycerides [5, 8]: 180 ± 63 mg/dL; T4 ([5]; 50 mg/kg oral gavage daily): 4.2 ± 0.3 µg/dL
17 nM | 227 nM | 41% | 28 nM |  | > 1000 nM | 34% | 44 nM | CCOC[C@H]1[C@@H](/C=C/C(C)=C/C(=O)O)C1(C)c1ccc2c(c1)C(C)(C)CCC2(C)C (stereo in doubt) [Compound 21b, (−)-(1R, 2S, 3S)-5-[3-Ethoxymethyl-2-methyl-2-(5,5,8,8-tetramethyl-5,6,7,8-tetrahydro-naphthalen-2-yl)-cyclopropyl]-3-methyl-penta-2E,4E-dienoic acid] | 
18 nM | 188 nM | 9% | 27 nM | 9% | 546 nM | 9% | 60 nM | COC[C@@H]1[C@@H](/C=C/C(C)=C/C(=O)O)C1(C)c1ccc2c(c1)C(C)(C)CCC2(C)C (stereo in doubt) [Compound 23a, (−)-(1R, 2S, 3R)-5-[3-Methoxymethyl-2-methyl-2-(5,5,8,8-tetramethyl-5,6,7,8-tetrahydro-naphthalen-2-yl)-cyclopropyl]-3-methyl-penta-2E,4E-dienoic acid] | 
27 nM | 121 nM |  |  |  |  |  |  | CCOC[C@@H]1[C@@H](/C=C/C(C)=C/C(=O)O)C1(C)c1ccc2c(c1)C(C)(C)CCC2(C)C (stereo in doubt) [Compound 23b, (−)-(1R, 2S, 3R)-5-[3-Ethoxymethyl-2-methyl-2-(5,5,8,8-tetramethyl-5,6,7,8-tetrahydro-naphthalen-2-yl)-cyclopropyl]-3-methyl-penta-2E,4E-dienoic acid] | 
11 nM | 49 nM | 24% | 5 nM | 34% | 47 nM | 35% | 16 nM | COCC1[C@@H](/C=C/C(C)=C/C(=O)O)C1(C)c1cc(C(C)C)cc(C(C)C)c1 (stereo in doubt) [Compound 29, (−)-(1R, 2S, 3S)-5-[3-Methoxymethyl-2-methyl-2-(3,5-diisopropyl-phenyl)-cyclopropyl]-3-methyl-penta-2E,4E-dienoic acid] | 
7.6 nM | 25 nM | 104% | 2.7 nM | 90% | 17 nM | 101% | 3.6 nM | COCC1[C@@H](/C=C/C(C)=C/C(=O)O)C1(C)c1cc(C(C)C)cc(C(C)C)c1 (stereo in doubt) [Compound 31a, (−)-(1R, 2S, 3R)-5-[3-Methoxymethyl-2-methyl-2-(3,5-diisopropyl-phenyl)-cyclopropyl]-3-methyl-penta-2E,4E-dienoic acid] | 
 |  |  |  |  |  |  |  | CC(/C=C/[C@@H]1C[C@]1(C)c1ccc2c(c1)C(C)(C)CCC2(C)C)=C\C(=O)O [Standard compound, (2E, 4E, 1′S, 2′S)-3-methyl-5-[2′-methyl-2′-(5,5,8,8-tetramethyl-5,6,7,8-tetrahydro-naphthalen-2-yl)-cyclopropyl]-penta-2,4-dienoic acid] | Glucose [5, 9]: 423 ± 57 mg/dL; Triglycerides [5, 9]: 300 ± 76 mg/dL; Glucose [5, 10]: 315 ± 105 mg/dL; Triglycerides [5, 10]: 219 ± 80 mg/dL; Glucose [5, 11]: 268 ± 242 mg/dL; Triglycerides [5, 11]: 117 ± 22 mg/dL; T4 ([5]; 4 mg/kg oral gavage daily): 1.1 ± 0.2 µg/dL; effect on serum thyroxine levels (in words) ([5]; diabetic mammals): undesirable side effect of reducing serum thyroxine levels
